In patent US20260345596A1, “TREATMENT OF LOCALLY ADVANCED OR METASTATIC UROTHELIAL CARCINOMA WITH ERDAFINITIB” (priority 2023, published 2026):

Legend:
[1] = in vivo; cited from earlier work
[2] = test system: locally advanced or metastatic urothelial carcinoma with selected FGFR3 alterations; test: Study BLC3001 Cohort 2: efficacy of BALVERSA versus pembrolizumab; type: in vivo, human; conditions: (95% CI)
Description: Subjects are assigned to Cohort 1 or Cohort 2 based upon prior treatment with an anti-PD-(L)1 agent. […] Cohort 1 and Cohort 2 are assessed independently.

## CC(=O)O[C@@]12CO[C@@H]1C[C@H](O)[C@@]1(C)C(=O)[C@H](O)C3=C(C)[C@@H](OC(=O)[C@H](O)[C@@H](NC(=O)OC(C)(C)C)c4ccccc4)C[C@@](O)([C@@H](OC(=O)c4ccccc4)[C@H]21)C3(C)C [Docetaxel]
[1]
  Cystoid macular edema: Cystoid macular edema has been reported
  Severe fluid retention: Severe fluid retention has been reported

## CC[C@]12C=CCN3CC[C@@]4(c5cc([C@@]6(C(=O)OC)C[C@@H]7C[C@@H](C(C)(F)F)CN(Cc8c6[nH]c6ccccc86)C7)c(OC)cc5N(C)[C@H]4[C@@](O)(C(=O)OC)[C@@H]1OC(C)=O)[C@@H]32 [Vinflunine]
[1]
  Posterior reversible encephalopathy syndrome (PRES): Cases of posterior reversible encephalopathy syndrome (PRES) have been observed

## Pembrolizumab: anti-PD-(L)1 agent pembrolizumab, 200 mg every 3 weeks
[2]
  Median OS: 11.1 (95% CI: 9.7, 13.6) months
